Results on 24 molecules are retold here after patent US8273900B2, “Organic compounds” (Novartis AG, priority 2008, dated 2012).

The target of this test is T1, human recombinant CRF-1 receptor (Homo sapiens, UniProt P34998).
T1 construct: expressed in transfected cells; host or cells: CHO cells (G418-selected)
T1 sequence (P34998 24-415): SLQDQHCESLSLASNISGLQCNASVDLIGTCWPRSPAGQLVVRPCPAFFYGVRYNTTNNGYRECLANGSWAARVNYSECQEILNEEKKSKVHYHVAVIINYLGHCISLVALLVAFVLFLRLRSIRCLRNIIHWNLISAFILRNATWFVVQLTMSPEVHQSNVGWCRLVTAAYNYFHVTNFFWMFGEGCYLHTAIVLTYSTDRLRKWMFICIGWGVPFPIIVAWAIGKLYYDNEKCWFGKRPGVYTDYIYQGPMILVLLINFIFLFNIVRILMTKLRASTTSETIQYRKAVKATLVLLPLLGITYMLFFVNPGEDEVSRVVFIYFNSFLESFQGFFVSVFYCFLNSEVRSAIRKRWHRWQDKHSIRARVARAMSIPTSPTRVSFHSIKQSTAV
In words: CRF-1 receptor antagonism, HTRF cAMP assay in CHO cells in the presence of 1 nM CRF. Type of test: cell-based. The settings on record: CHO cells expressing human recombinant CRF-1; inhibition of the effect of 1 nM CRF on cAMP. As to the method: The CRF-1 or CRF-2α receptor antagonistic activity of the agents of the invention has been determined in vitro in the following assay:
Chinese hamster ovary (CHO) cells expressing either the human recombinant CRF-1 or CRF-2a receptors (Chen et al., Proc Natl Acad Sci USA 90, 8967-8971, 1993; Liaw et al., Endocrinology 137, 72-77, 1996) are propagated in Dulbecco's modified Eagle medium supplemented with 10% foetal calf serum, non-essential amino acids, 100 U/ml penicillin, 100 mg/l streptomycin and 1 g/l geneticin (G418). For cyclic AMP determinations the Homogeneous Time-Resolved Fluoresce (HTRF) cAMP dynamic 2 kit (Cisbio International, France) was used as per manufacturers' instructions. CHO cells, previously cryopreserved, were thawed, centrifuged for 7 mins at 1200 rpm and resuspended in serum free media, then pipetted out onto clear bottomed black tissue culture treated 384-well microtitre plates (Corning Inc, US) at 2,000 cells per well. Compounds of the invention, prepared in DMSO, and subsequently diluted 50 fold in assay buffer (1× Hanks balanced salt solution, 0.2% (w/v) bovine serum albumin, 1.7 mM isobutylmethylxanthine and 10 mM Hepes, pH 7.4) are then added onto the cell containing plate where a further 2 fold dilution is performed and incubated for 15 min. Following incubation, buffer containing a 5 times final concentration of agonist is added to the plate and incubated for 30 min. Finally, d2 dye labelled cAMP and cryptate labeled anti-cAMP antibody, both made in lysis buffer, are added to the plate followed by a settling period of 1 hour. During the settling period cAMP produced by the cells competes with the d2 labelled cAMP for the anti-cAMP cryptate. The plate is read on the Pherastar (BMG, Germany). Increasing levels of endogenous cAMP produced by cells can be followed by a decrease of fluorescent signal and vice versa. Values represented by a change in arbitrary fluorescence units are converted into cAMP concentrations by use of a standard curve the reagents for which are supplied with the kit. Antagonist dose response curves (1 nM-30 μM) are constructed in the presence of 1 nM CRF. IC50 values of antagonists are calculated by fitting the percent inhibition of the effect of CRF by increasing concentrations of the antagonists. The fit is performed using the nonlinear logistic function of the Activitybase software package v 5.4.5.27 (IDBS, UK).
On the technique in general: Time-resolved FRET reads energy transfer from a long-lived donor to a nearby acceptor.
By IC50 is commonly meant the point on the concentration scale where inhibition reaches its midpoint. As for `Cc1noc(NC[C@H]2CC[C@H](NC(=O)c3cc(C(F)(F)F)ccc3Cl)CC2)c1C` [Example 19.102, Trans-2-Chloro-N-{4-[(3,4-dimethyl-isoxazol-5-ylamino)-methyl]-cyclohexyl}-5-trifluoromethyl-benzamide], the half-maximal inhibitory concentration (IC50) was found to be 76 nM.
In the case of `CC(C)c1cc(NC[C@H]2CC[C@H](NC(=O)c3cc(C(F)(F)F)ccc3Cl)CC2)n[nH]1` [Example 4.16, Trans-2-Chloro-N-{4-[(5-isopropyl-1H-pyrazol-3-ylamino)-methyl]-cyclohexyl}-5-trifluoromethyl-benzamide], the 50% inhibitory concentration (IC50) was found to be 63 nM.
Consider `Cc1cccnc1NC[C@H]1CC[C@H](NC(=O)c2cc(C(F)(F)F)ccc2Cl)CC1` [Example 1, Trans-2-Chloro-N-{4-[(3-methyl-pyridin-2-ylamino)-methyl]-cyclohexyl}-5-trifluoromethyl-benzamide], for which the IC50 came to 38 nM.
For the molecule `Cn1nc(NC[C@H]2CC[C@H](NC(=O)c3cc(C(F)(F)F)ccc3Cl)CC2)c2ccccc21` [Example 19.70, Trans-2-chloro-N-(4-((1-methyl-1H-indazol-3-ylamino)methyl)cyclohexyl)-5-(trifluoromethyl) benzamide], the IC50 was determined as 29 nM.
On to `O=C(N[C@H]1CC[C@H](CNc2cc(C3CC3)n[nH]2)CC1)c1cc(C(F)(F)F)ccc1Cl` [Example 8, Trans-2-Chloro-N-{4-[(5-cyclopropyl-2H-pyrazol-3-ylamino)-methyl]-cyclohexyl}-5-trifluoromethyl-benzamide], for which the 50% inhibitory concentration (IC50) is 47 nM.
Regarding `O=C(N[C@H]1CC[C@H](CNc2cc(-c3ccc(F)cc3)n[nH]2)CC1)c1cc(C(F)(F)F)ccc1Cl` [Example 4.11, Trans-2-Chloro-N-(4-{[5-(4-fluoro-phenyl)-2H-pyrazol-3-ylamino]-methyl}-cyclohexyl)-5-trifluoromethyl-benzamide], the half-maximal inhibitory concentration (IC50) amounted to 61 nM.
With `O=C(N[C@H]1CC[C@H](CNc2n[nH]c3ccc(F)cc23)CC1)c1cc(C(F)(F)F)ccc1Cl` [Example 19.62, Trans-2-chloro-N-(4-((5-fluoro-1H-indazol-3-ylamino)methyl)cyclohexyl)-5-(trifluoromethyl) benzamide], the IC50 was found to be 90 nM.
Take `O=C(N[C@H]1CC[C@H](Cn2ccc(-c3ccccc3)n2)CC1)c1cc(C(F)(F)F)ccc1Cl` [Example 22.3, 2-Chloro-N-[4-(3-phenyl-pyrazol-1-ylmethyl)-cyclohexyl]-5-trifluoromethyl-benzamide]: the IC50 turned out to be 234 nM.
Under `Cc1ncc(Cl)cc1NC[C@H]1CC[C@H](NC(=O)c2cc(C(F)(F)F)ccc2Cl)CC1` [Example 19.73, Trans-2-chloro-N-(4-((5-chloro-2-methylpyridin-3-ylamino)methyl)cyclohexyl)-5-(trifluoromethyl) benzamide] stands 19 nM; under `Cc1cccc2[nH]nc(NC[C@H]3CC[C@H](NC(=O)c4cc(C(F)(F)F)ccc4Cl)CC3)c12` [Example 19.65, Trans-2-chloro-N-(4-((4-methyl-1H-indazol-3-ylamino)methyl)cyclohexyl)-5-(trifluoromethyl) benzamide], 53 nM; under `O=C(N[C@H]1CC[C@H](Cn2ncc3ccccc32)CC1)c1cc(C(F)(F)F)ccc1Cl` [Example 21.1, N-(4-((1H-indazol-1-yl)methyl)cyclohexyl)-2-chloro-5-(trifluoromethyl) benzamide], 114 nM.
In the case of `O=C(N[C@H]1CC[C@H](CNc2n[nH]c3ncccc23)CC1)c1cc(C(F)(F)F)ccc1Cl` [Example 19.57, Trans-N-(4-((1H-pyrazolo[3,4-b]pyridin-3-ylamino)methyl)cyclohexyl)-2-chloro-5-(trifluoromethyl) benzamide], the 50% inhibitory concentration (IC50) worked out at 88 nM.
Regarding `Cc1cc(C)n(C[C@H]2CC[C@H](NC(=O)c3cc(Cl)cnc3C)CC2)n1` [Example 22.4, 5-Chloro-N-[4-(3,5-dimethyl-pyrazol-1-ylmethyl)-cyclohexyl]-2-methyl-nicotinamide], the IC50 came to 350 nM.
As to `Cn1cc(-c2ccccc2)c(NC[C@H]2CC[C@H](NC(=O)c3cc(C(F)(F)F)ccc3Cl)CC2)n1` [Example 19.101, Trans-2-Chloro-N-{4-[(1-methyl-4-phenyl-1H-pyrazol-3-ylamino)-methyl]-cyclohexyl}-5-trifluoromethyl-benzamide], the half-inhibitory concentration (IC50) was found to be 69 nM.
On to `Cc1cncc(NC[C@H]2CC[C@H](NC(=O)c3cc(C(F)(F)F)ccc3Cl)CC2)c1` [Example 10, Trans-2-chloro-N-(4-((5-methylpyridin-3-ylamino)methyl)-cyclohexyl)-5-(trifluoromethyl)benzamide], for which the half-inhibitory concentration (IC50) is 41 nM.
Then `Cc1ccc(NC[C@H]2CC[C@H](NC(=O)c3cc(C(F)(F)F)ccc3Cl)CC2)nc1` [Example 2.8, Trans-2-Chloro-N-{4-[(5-methyl-pyridin-2-ylamino)-methyl]-cyclohexyl}-5-trifluoromethyl-benzamide], with 66 nM.
Take `O=C(N[C@H]1CC[C@H](CNc2cncc(F)c2)CC1)c1cc(C(F)(F)F)ccc1Cl` [Example 19.1, Trans-2-chloro-N-(4-((5-fluoropyridin-3-ylamino)methyl)cyclohexyl)-5-(trifluoromethyl) benzamide]: the IC50 amounted to 26 nM.
Regarding `O=C(N[C@H]1CC[C@H](CNc2ccccc2Cl)CC1)c1cc(C(F)(F)F)ccc1Cl` [Example 2.26, Trans-2-Chloro-N-{4-[(2-chloro-phenylamino)-methyl]-cyclohexyl}-5-trifluoromethyl-benzamide], the IC50 came to 63 nM.
Then `Cc1ccncc1NC[C@H]1CC[C@@H](NC(=O)c2cc(C(F)(F)F)ccc2Cl)CC1` [Example 14.1, Cis-2-chloro-N-((1s,4s)-4-((4-methylpyridin-3-ylamino)methyl)cyclohexyl)-5-(trifluoromethyl)benzamide], with 2200 nM.
Take `CCc1[nH]nc(NC[C@H]2CC[C@H](NC(=O)c3cc(C(F)(F)F)ccc3Cl)CC2)c1C` [Example 19.117, Trans-2-Chloro-N-{4-[(5-ethyl-4-methyl-1H-pyrazol-3-ylamino)-methyl]-cyclohexyl}-5-trifluoromethyl-benzamide]: the IC50 turned out to be 43 nM.
For `O=C(N[C@H]1CC[C@H](Cn2cc3ccccc3n2)CC1)c1cc(C(F)(F)F)ccc1Cl` [Example 21.2, 2-Chloro-N-(4-indazol-2-ylmethyl-cyclohexyl)-5-trifluorometnyl-benzamide], the IC50 came out at 338 nM.
With `O=C(N[C@H]1CC[C@H](CNc2ccc(F)cn2)CC1)c1cc(C(F)(F)F)ccc1Cl` [Example 19.2, Trans-2-chloro-N-(4-((5-fluoropyridin-2-ylamino)methyl)cyclohexyl)-5-(trifluoromethyl) benzamide], the IC50 was 23 nM.
In the case of `O=C(N[C@H]1CC[C@H](CNc2cccc(F)c2)CC1)c1cc(C(F)(F)F)ccc1Cl` [Example 9, Trans-2-Chloro-N-{4-[(3-fluoro-phenylamino)-methyl]-cyclohexyl}-5-trifluoromethyl-benzamide], the IC50 is 50 nM.
On to `Cc1ncccc1NC[C@H]1CC[C@H](NC(=O)c2cc(C(F)(F)F)ccc2Cl)CC1` [Example 1.13, Trans-2-Chloro-N-{4-[(2-methyl-pyridin-3-ylamino)-methyl]-cyclohexyl}-5-trifluoromethyl-benzamide], for which the half-maximal inhibitory concentration (IC50) is 19 nM.
